The numbers were not newly measured in patent US20100279989A1, “ORAL CONTRACEPTION WITH TRIMEGESTONE” (GRÜNENTHAL GMBH, priority 2005, published 2010), which cites them from elsewhere.

The series concerns ovulation. Particulars: p.o.

Regarding `C[C@H](O)C(=O)[C@@]1(C)CC[C@H]2[C@@H]3CCC4=CC(=O)CCC4=C3CC[C@@]21C` [trimegestone, 17β-[(S)-2-hydroxypropanoyl]-17α-methyl-estra-4,9-dien-3-one], the ovulation inhibition dose is listed as 0.5 mg per day.
